ChEMBL document CHEMBL5236572, “Bioactive Aurones, Indanones, and Other Hemiindigoid Scaffolds: Medicinal Chemistry and Photopharmacology Perspectives” (J Med Chem, 2022)
≈ marks a conversion by molar mass, not a printed value.

Assays:
Pseudomonas aeruginosa = assay: Antimicrobial activity against Pseudomonas aeruginosa MTCC 1688 assessed as bacterial growth inhibition by broth microdilution method; type: functional
Toxoplasma gondii = assay: Antiparasitic activity against Toxoplasma gondii RH type 1 infected in human HFF cells assessed as inhibition of parasite proliferation incubated for 30 hrs by Hoechst-33342, YFP2 and Alexa-488 dye based high content imaging analysis; type: functional, organism-based; conditions: RH type 1, HFF
Histone deacetylase 4 = Histone deacetylase 4 (Homo sapiens, UniProt P56524); assay: Inhibition of human HDAC4 in HeLa cells extract incubated for 5 mins followed by substrate addition and measured after 15 mins using Fluor-de-Lys as substrate by spectrofluorometric analysis; type: cell-free
Histone deacetylase 4, sequence (P56524 whole entry): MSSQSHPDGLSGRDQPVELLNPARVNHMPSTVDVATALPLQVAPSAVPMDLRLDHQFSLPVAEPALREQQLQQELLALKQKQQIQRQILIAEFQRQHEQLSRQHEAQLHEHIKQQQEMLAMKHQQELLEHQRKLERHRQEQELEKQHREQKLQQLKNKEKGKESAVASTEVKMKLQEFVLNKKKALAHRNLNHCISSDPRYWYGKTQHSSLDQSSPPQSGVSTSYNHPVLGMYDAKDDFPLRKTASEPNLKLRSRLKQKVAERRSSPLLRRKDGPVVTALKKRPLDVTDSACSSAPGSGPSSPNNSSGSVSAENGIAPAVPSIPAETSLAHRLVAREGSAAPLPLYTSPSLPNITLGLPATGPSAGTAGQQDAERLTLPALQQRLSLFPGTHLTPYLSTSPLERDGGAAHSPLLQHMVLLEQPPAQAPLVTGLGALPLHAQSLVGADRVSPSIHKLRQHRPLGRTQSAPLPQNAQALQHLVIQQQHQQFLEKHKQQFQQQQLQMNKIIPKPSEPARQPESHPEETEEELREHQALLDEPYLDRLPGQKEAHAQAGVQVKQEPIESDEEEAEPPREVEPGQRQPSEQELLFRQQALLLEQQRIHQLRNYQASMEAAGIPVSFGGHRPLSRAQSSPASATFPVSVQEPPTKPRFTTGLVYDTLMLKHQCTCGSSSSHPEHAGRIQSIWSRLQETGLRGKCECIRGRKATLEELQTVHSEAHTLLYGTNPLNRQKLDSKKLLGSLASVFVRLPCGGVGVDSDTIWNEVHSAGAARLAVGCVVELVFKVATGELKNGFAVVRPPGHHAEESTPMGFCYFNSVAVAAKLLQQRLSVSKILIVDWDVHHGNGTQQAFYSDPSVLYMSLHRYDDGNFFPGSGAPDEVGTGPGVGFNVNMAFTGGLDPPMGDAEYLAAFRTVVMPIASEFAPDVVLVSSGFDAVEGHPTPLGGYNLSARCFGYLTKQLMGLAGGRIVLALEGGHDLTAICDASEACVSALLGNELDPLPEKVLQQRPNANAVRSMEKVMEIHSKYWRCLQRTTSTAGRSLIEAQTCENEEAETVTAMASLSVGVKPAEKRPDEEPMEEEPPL

Histone deacetylase 2 = Histone deacetylase 2 (Homo sapiens, UniProt Q92769); assay: Inhibition of human HDAC2 in HeLa cells extract incubated for 5 mins followed by substrate addition and measured after 15 mins using Fluor-de-Lys as substrate by spectrofluorometric analysis; type: cell-free
Histone deacetylase 2, sequence (Q92769 whole entry): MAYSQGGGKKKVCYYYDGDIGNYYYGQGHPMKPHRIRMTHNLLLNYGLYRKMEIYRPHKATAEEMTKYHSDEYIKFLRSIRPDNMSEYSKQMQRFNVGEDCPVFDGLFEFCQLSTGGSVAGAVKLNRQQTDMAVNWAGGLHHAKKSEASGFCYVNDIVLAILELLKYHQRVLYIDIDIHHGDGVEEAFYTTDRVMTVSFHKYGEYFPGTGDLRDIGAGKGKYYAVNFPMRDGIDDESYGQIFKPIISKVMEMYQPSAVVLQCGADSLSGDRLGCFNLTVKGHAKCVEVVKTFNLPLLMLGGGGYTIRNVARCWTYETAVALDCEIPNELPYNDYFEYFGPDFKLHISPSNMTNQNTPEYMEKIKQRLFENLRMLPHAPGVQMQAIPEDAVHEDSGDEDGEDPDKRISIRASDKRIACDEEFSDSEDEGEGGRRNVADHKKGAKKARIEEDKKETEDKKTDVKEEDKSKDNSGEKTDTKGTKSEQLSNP

Histone deacetylase 7 = Histone deacetylase 7 (Homo sapiens, UniProt Q8WUI4); assay: Inhibition of human HDAC7 in HeLa cells extract incubated for 5 mins followed by substrate addition and measured after 15 mins using Fluor-de-Lys as substrate by spectrofluorometric analysis; type: cell-free
Histone deacetylase 7, sequence (Q8WUI4 whole entry): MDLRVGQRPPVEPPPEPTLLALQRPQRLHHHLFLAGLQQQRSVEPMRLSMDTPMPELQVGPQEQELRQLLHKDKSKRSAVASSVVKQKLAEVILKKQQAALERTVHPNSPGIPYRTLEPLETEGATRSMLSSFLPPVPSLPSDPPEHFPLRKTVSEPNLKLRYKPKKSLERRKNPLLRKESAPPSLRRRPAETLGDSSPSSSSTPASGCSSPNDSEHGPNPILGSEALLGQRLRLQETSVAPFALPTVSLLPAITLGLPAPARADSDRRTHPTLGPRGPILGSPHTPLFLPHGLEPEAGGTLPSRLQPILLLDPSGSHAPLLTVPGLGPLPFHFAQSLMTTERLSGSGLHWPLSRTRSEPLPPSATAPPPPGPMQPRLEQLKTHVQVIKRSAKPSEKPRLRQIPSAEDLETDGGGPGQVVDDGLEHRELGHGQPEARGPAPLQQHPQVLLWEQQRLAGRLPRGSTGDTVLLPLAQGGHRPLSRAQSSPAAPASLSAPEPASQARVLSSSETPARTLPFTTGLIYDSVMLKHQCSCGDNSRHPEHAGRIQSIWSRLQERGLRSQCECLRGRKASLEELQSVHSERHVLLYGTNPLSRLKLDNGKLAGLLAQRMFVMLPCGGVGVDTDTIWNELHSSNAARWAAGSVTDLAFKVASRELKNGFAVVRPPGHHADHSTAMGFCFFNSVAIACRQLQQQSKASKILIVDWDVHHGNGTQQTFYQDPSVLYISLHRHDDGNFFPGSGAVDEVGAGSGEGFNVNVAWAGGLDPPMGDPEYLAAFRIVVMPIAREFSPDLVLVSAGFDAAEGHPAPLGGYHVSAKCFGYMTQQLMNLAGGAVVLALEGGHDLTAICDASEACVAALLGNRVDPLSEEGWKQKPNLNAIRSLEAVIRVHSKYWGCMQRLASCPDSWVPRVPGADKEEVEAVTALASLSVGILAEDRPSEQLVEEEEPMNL

Histone deacetylase 8 = Histone deacetylase 8 (Homo sapiens, UniProt Q9BY41); assay: Inhibition of human HDAC8 in HeLa cells extract incubated for 5 mins followed by substrate addition and measured after 15 mins using Fluor-de-Lys as substrate by spectrofluorometric analysis; type: cell-free
Histone deacetylase 8, sequence (Q9BY41 whole entry): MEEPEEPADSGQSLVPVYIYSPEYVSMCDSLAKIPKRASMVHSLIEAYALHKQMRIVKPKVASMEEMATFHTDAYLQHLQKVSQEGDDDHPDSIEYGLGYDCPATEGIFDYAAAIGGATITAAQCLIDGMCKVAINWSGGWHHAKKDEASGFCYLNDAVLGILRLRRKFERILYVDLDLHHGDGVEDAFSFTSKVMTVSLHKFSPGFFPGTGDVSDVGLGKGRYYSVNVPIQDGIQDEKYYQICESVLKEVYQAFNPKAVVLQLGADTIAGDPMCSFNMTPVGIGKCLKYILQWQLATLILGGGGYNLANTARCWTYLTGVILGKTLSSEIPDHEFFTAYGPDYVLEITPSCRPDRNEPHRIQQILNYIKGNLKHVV

[1] = Inhibition of synthetic AcPHF6 peptide aggregation measured upto 120 mins at 1 min interval by ThT-based fluorometric assay
HT-22 [2] = assay: Neuroprotective activity against glutamate induced-neurotoxicity in mouse HT-22 cells assessed as cell viability preincubated for 4 hrs followed by glutamate stimulation and measured after 12 hrs by MTT assay; type: functional, cell-based
HT-22 [3] = assay: Neuroprotective activity against glutamate induced-neurotoxicity in mouse HT-22 cells assessed as cell viability at 40 uM preincubated for 4 hrs followed by glutamate stimulation and measured after 12 hrs by MTT assay; type: functional; conditions: time 16 hrs, read-out: Activity
[4] = Binding affinity to Helicobacter pylori HTRA by SPR analysis
[5] = target: T1, Amine oxidase [flavin-containing] B (Homo sapiens, UniProt P27338); assay: Inhibition of recombinant human MAO-B
T1 sequence (P27338 whole entry): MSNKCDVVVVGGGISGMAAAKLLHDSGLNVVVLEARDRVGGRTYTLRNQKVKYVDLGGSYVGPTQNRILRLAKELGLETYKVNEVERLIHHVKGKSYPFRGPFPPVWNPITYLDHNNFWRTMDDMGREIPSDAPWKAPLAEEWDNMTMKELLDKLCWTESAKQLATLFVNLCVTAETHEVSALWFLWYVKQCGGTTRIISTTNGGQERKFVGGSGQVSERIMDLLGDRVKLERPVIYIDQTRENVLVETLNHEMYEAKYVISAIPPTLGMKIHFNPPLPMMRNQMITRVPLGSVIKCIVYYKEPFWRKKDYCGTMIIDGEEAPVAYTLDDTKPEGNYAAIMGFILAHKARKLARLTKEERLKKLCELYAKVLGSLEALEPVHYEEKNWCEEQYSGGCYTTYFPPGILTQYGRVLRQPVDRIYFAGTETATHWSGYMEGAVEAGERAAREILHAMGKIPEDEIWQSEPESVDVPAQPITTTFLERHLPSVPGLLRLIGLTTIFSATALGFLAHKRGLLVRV

[6] = target: T2, Amyloid-beta precursor protein (Homo sapiens, UniProt P05067); assay: Inhibition of amyloid beta (1 to 42) (unknown origin) self aggregation by ThT-based fluorometric assay
T2 sequence (P05067 whole entry): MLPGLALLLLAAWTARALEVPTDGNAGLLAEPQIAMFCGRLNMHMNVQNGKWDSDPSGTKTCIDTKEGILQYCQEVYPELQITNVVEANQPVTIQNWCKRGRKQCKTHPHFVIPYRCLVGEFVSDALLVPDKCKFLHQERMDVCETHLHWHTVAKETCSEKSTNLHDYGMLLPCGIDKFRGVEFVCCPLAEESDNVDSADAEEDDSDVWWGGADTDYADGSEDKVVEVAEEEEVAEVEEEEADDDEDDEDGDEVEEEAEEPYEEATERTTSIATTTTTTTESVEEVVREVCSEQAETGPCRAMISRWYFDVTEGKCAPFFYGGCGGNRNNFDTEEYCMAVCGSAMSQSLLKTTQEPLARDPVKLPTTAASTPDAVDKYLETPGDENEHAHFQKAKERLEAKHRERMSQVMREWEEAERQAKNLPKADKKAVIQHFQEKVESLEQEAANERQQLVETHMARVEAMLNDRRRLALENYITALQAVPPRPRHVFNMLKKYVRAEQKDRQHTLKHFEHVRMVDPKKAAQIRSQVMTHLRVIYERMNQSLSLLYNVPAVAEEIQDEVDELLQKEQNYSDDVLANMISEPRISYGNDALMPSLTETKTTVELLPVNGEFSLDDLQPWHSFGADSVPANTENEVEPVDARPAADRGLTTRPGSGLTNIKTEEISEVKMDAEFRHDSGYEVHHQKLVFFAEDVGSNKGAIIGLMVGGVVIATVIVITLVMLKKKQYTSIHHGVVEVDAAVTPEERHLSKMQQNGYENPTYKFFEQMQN

[7] = target: T2, Amyloid-beta precursor protein; assay: Inhibition of self-induced amyloid beta (1 to 42) (unknown origin) disaggregation by ThT-based fluorometric assay
Acetylcholinesterase [8] = target: Acetylcholinesterase (Homo sapiens, UniProt P22303); assay: Inhibition of human AchE by Ellman's method
Acetylcholinesterase (Homo sapiens, UniProt P22303), sequence (P22303 whole entry): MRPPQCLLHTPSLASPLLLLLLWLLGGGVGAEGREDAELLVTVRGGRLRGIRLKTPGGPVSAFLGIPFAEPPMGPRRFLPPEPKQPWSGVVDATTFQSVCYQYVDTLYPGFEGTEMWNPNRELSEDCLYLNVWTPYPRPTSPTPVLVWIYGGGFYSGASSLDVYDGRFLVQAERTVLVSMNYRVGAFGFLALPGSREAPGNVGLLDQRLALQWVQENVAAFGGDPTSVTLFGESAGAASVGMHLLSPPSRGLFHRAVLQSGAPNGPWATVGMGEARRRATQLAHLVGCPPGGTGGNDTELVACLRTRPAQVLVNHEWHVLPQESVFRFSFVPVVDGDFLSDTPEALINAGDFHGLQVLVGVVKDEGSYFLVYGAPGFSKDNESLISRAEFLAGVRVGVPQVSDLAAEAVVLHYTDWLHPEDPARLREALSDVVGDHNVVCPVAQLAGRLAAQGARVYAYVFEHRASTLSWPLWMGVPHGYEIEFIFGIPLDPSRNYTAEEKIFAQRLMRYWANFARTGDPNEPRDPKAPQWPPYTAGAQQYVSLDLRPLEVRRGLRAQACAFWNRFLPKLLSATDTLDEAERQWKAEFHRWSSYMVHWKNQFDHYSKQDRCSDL

Leishmania infantum = assay: Antileishmanial activity against luciferase expressing […] amastigote stage of Leishmania infantum MOM/MA671/TMAP263 infected in PMA differentiated human THP-1 macrophage cells assessed as reduction in parasite growth incubated for 72 hrs by luminescence analysis; type: functional, organism-based; conditions: MOM/MA671/TMAP263, THP-1, 72 h
[9] = Selectivity index, ratio of IC50 for cytotoxicity against PMA differentiated human THP-1 cells to IC50 for antileishmanial activity against luciferase expressing axenic amastigote stage of Leishmania infantum MOM/MA671/TMAP263 infected in PMA differentiated human THP-1 macrophage cells; type: toxicity, cell-based; conditions: PMA-differentiated THP-1 cells, read-out: Ratio IC50
Rhizopus arrhizus = assay: Antifungal activity against Rhizopus oryzae assessed as reduction in fungal growth incubated for 24 hrs by disk diffusion assay; type: functional
Mucor mucedo = assay: Antifungal activity against Mucor mucedo assessed as reduction in fungal growth incubated for 24 hrs by disk diffusion assay; type: functional
Aspergillus niger = assay: Antifungal activity against Aspergillus niger assessed as reduction in fungal growth incubated for 24 hrs by disk diffusion assay; type: functional
Aspergillus flavus [10] = assay: Antifungal activity against Aspergillus flavus assessed as reduction in fungal growth incubated for 24 hrs by disk diffusion assay; type: functional
Bacillus subtilis = assay: Antimicrobial activity against Bacillus subtilis MTCC 121 assessed as bacterial growth inhibition incubated for 24 hrs by well diffusion method; type: functional
Staphylococcus aureus = assay: Antimicrobial activity against Staphylococcus aureus MTCC96 assessed as bacterial growth inhibition incubated for 24 hrs by well diffusion method; type: functional
Escherichia coli = assay: Antimicrobial activity against Escherichia coli MTCC43 assessed as bacterial growth inhibition incubated for 24 hrs by well diffusion method; type: functional
Proteus vulgaris = assay: Antimicrobial activity against Proteus vulgaris assessed as bacterial growth inhibition incubated for 24 hrs by well diffusion method; type: functional
Aspergillus flavus [11] = assay: Antifungal activity against Aspergillus flavus NRRL-3357 assessed as reduction in fungal growth by well diffusion method; type: functional
Candida albicans = assay: Antifungal activity against Candida albicans assessed as reduction in fungal growth by well diffusion method; type: functional
[12] = system: Mycobacterium tuberculosis; assay: Antimicrobial activity against Mycobacterium tuberculosis H37Rv assessed as reduction in bacterial growth incubated for 7 days by broth micro dilution method; type: functional; conditions: 168 h, time 7 day
[13] = Cytotoxicity against human HEK293T cells; type: toxicity, cell-based, HEK-293T
Leishmania major [14] = assay: Antileishmanial activity against promastigote stage Leishmania major MHOM/JL/80/Friedlin overexpressing ABCI4 infected in human THP-1 cells assessed as reduction in parasite growth incubated for 72 hrs by MTT assay; type: functional, organism-based; conditions: THP-1, 72 h
THP-1 = assay: Cytotoxicity against human THP-1 cells assessed as reduction in cell viability incubated for 72 hrs by MTT assay; type: functional, cell-based; conditions: THP-1, 72 h
Leishmania major [15] = assay: Antileishmanial activity against promastigote stage Leishmania major MHOM/JL/80/Friedlin overexpressing ABCI4 infected in human THP-1 cells assessed as fold change in reduction in parasite growth incubated for 72 hrs in presence of SbIII by MTT assay; type: functional
Acetylcholinesterase [16] = target: Acetylcholinesterase (Electrophorus electricus, UniProt O42275); assay: Inhibition of electric eel AChE using acetylthiocholine iodide as substrate preincubated for 5 mins followed by substrate addition by spectrophotometric Ellman's method
Acetylcholinesterase (Electrophorus electricus, UniProt O42275), sequence (O42275 whole entry): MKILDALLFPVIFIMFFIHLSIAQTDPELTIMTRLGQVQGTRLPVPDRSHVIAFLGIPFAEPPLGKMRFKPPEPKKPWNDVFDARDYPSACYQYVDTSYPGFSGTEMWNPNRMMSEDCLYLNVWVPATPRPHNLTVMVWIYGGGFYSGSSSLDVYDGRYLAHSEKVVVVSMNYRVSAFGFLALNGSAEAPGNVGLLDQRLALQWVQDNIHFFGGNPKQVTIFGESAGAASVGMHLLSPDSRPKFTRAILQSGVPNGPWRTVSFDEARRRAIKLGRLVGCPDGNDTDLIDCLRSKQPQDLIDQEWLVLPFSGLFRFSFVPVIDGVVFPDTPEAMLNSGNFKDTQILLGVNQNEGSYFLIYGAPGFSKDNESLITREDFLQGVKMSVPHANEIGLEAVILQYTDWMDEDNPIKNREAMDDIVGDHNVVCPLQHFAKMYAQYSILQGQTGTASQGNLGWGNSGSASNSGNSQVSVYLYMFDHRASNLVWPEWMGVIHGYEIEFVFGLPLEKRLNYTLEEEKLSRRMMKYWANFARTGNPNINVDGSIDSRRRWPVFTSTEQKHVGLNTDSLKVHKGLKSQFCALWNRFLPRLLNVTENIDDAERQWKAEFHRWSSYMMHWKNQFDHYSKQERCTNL

[17] = Inhibition of equine serum BuChE using butyrylthiocholine iodide as substrate preincubated for 5 mins followed by substrate addition by spectrophotometric Ellman's method
[18] = Selectivity index, ratio of IC50 for inhibition of electric eel AChE to IC50 for inhibition of equine serum BuChE
[19] = target: T3, Amine oxidase [flavin-containing] A (Homo sapiens, UniProt P21397); assay: Inhibition of recombinant human MAO-A
T3 sequence (P21397 whole entry): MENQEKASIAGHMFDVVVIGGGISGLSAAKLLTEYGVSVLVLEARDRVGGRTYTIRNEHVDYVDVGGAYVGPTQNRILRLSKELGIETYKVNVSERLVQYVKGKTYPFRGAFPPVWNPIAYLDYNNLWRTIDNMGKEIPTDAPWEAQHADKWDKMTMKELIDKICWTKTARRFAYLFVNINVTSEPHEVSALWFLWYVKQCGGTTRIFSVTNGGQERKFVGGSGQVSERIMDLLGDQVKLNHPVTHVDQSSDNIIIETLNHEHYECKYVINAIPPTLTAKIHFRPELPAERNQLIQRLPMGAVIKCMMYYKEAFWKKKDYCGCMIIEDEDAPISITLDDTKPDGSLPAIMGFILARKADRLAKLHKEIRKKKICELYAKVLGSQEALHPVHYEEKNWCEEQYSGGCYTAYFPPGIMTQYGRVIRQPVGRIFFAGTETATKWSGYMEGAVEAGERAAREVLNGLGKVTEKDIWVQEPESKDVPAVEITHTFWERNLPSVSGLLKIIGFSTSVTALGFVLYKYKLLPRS

Homo sapiens = species on record: Homo sapiens; assay: Selectivity index, ratio of IC50 for inhibition of recombinant human MAO-A to IC50 for inhibition of recombinant human MAO-B

## C=CCn1c(=O)c(/C=C2\Oc3cc(O)cc(O)c3C2=O)cc2cc(C)ccc21
Pseudomonas aeruginosa
  MIC: 33 µM (≈ 12.4 µg/mL)

## O=C1/C(=C/c2cn(CC3CCCCC3)c3ccccc23)Oc2cc(O)cc(O)c21
Toxoplasma gondii
  IC50: 10000 nM

## O=C1/C(=C/c2ccc(O)c(O)c2)Oc2cc(O)cc(O)c21 [AUREUSIDIN]
Histone deacetylase 4
  Ki: 800 nM
Histone deacetylase 2
  Ki: 1660 nM
Histone deacetylase 7
  Ki: 1660 nM
Histone deacetylase 8
  Ki: 1660 nM
[1]
  inhibition: 62%
HT-22 [2]
  EC50: 11900 nM
HT-22 [3]
  viability at 40 µM: 97%

## O=C(O)c1cc(-c2ccc(/C=C3\Sc4ccccc4C3=O)o2)ccc1Cl
[4]
  Kd: 12000 nM

## COc1cc2c(cc1OC)C(=O)/C(=C/c1ccc([N+](=O)[O-])cc1)C2
[5]
  IC50: 30 nM
[6]
  IC50: 1800 nM
[7]
  IC50: 7900 nM

## COc1cc2c(cc1OC)C(=O)/C(=C/c1ccc(OCCN3CCCCC3)cc1)C2
Acetylcholinesterase [8]
  IC50: 300 nM

## COc1cc(OC)c2c(c1)O/C(=C\c1ccccc1OC)C2=O
Leishmania infantum
  EC50: 1300 nM
[9]
  selectivity ratio: 57.5

## O=C1/C(=C/c2ccncc2)Cc2ccc3c(c21)CCO3
Rhizopus arrhizus
  MIC: 60 µM (≈ 15.8 µg/mL)
Mucor mucedo
  MIC: 60 µM (≈ 15.8 µg/mL)
Aspergillus niger
  MIC: 60 µM (≈ 15.8 µg/mL)
Aspergillus flavus [10]
  MIC: 60 µM (≈ 15.8 µg/mL)

## O=C1/C(=C/c2ccc(Br)cc2)Oc2c1ccc1c2C=CCO1
Bacillus subtilis
  MIC: 4.4 µM (≈ 1.56 µg/mL)
Staphylococcus aureus
  MIC: 4.4 µM (≈ 1.56 µg/mL)
Escherichia coli
  MIC: 4.4 µM (≈ 1.56 µg/mL)
Proteus vulgaris
  MIC: 4.4 µM (≈ 1.56 µg/mL)
Aspergillus flavus [11]
  MIC: 18 µM (≈ 6.39 µg/mL)
Candida albicans
  MIC: 18 µM (≈ 6.39 µg/mL)

## CC(=O)N1/C(=C\c2ccc(-c3cnc4ccccc4c3)cc2)C(=O)c2ccccc21
[12]
  MIC90: 0.65 µM (≈ 0.254 µg/mL)
  MIC99: 0.74 µM (≈ 0.289 µg/mL)
[13]
  CC50: 19 nM

## COc1ccc(OC)c(/C=C2\Oc3cc(O)cc(O)c3C2=O)c1
Leishmania major [14]
  EC50: 190000 nM
THP-1
  EC50: 350000 nM
Leishmania major [15]
  fold change (FC): 6

## COc1ccc(NC(=O)Oc2cccc(/C=C3\Cc4cc(OC)c(OC)cc4C3=O)c2)cc1
Acetylcholinesterase [16]
  IC50: 21000 nM
[17]
  IC50: 310 nM
[18]
  Ratio IC50: 70

## COc1cc2c(cc1OC)C(=O)/C(=C/c1ccc(N(C)C)cc1)C2
[19]
  IC50: 20 nM
[5]
  IC50: 58000 nM
Homo sapiens
  Ratio IC50: > 2500
